Measured values reported in patent US20110118118A1, “HERBICIDALLY ACTIVE PHENYL-SUBSTITUTED PYRIDAZINONES” (BAYER CROPSCIENCE AG, priority 2009, published 2011).

What was measured:
Assay in all cases: Post-emergence herbicidal action against harmful plants
Assay type in all cases: in vivo
Details in all cases: application rate 320 g/ha, rated visually after about 3 weeks vs untreated controls
Abutilon theophrasti = system: Abutilon theophrasti
Method: (§1) 2. Post-Emergence Herbicidal Action Against Harmful Plants Seeds of monocotyledonous and dicotyledonous weed and crop plants are placed in sandy loam in wood-fiber pots, covered with soil and cultivated in a greenhouse under good growth conditions. 2 to 3 weeks after sowing, the test plants are treated at the one-leaf stage. The compounds according to the invention, formulated in the form of wettable powders (WP) or as emulsion concentrates (EC), are then sprayed as aqueous suspension or emulsion at a water application rate of 600 to 800 l/ha (converted) with the addition of 0.2% of wetting agent onto the green parts of the plants. After the test plants have been kept in the greenhouse under optimum growth conditions for about 3 weeks, the activity of the preparations is rated visually in comparison to untreated controls (herbicidal activity in percent (%): 100% activity=the plants have died, 0% activity=like control plants). Here, for example, the compounds Nos. I-1-c-2 and I-1-c-3 (Table 33 in each case) each show, at an application rate of 320 g/ha, an activity of at least 90% against Alopecurus myosuroides, Amaranthus retroflexus, Matricaria inodora, Pharbitis purpureum and Viola tricolor.

Fallopia convolvulus = system: Fallopia convolvulus
Method: as §1

Lolium multiflorum = system: Lolium multiflorum
Method: as §1

Veronica persica = system: Veronica persica
Method: as §1

CCc1cc(Cl)cc(Br)c1-c1c(O)c(C)nn(C)c1=O [I-1-a-3]
100%: herbicidal activity in percent against Abutilon theophrasti (Abutilon theophrasti) | herbicidal activity in percent against Fallopia convolvulus (Fallopia convolvulus) | herbicidal activity in percent against Lolium multiflorum (Lolium multiflorum) | herbicidal activity in percent against Veronica persica (Veronica persica)

CCc1cc(Cl)cc(Br)c1-c1c(OC(=O)C(C)C)c(C)nn(C)c1=O [I-1-b-2]
100%: herbicidal activity in percent against Abutilon theophrasti (Abutilon theophrasti) | herbicidal activity in percent against Fallopia convolvulus (Fallopia convolvulus) | herbicidal activity in percent against Lolium multiflorum (Lolium multiflorum) | herbicidal activity in percent against Veronica persica (Veronica persica)
